Each block holds one molecule with its values, some of them ahead of it.
Experiments:
[1] = test system: MIA-PACA2 pancreatic cancer cell lines; test: Cell proliferation assay, alternate assay conditions (DAPI staining); type: cell-based; conditions: Homo sapiens, MIA PaCa-2; for inhibition at 10 µM: * = tested at 10 μM, alternate conditions, MIA-PACA2
Method: (§1) Cell lines: Tumor-derived pancreatic cancer cell lines MIA-PACA2 were purchased from ATCC and grown in complete DMEM-High Glucose medium supplemented with penicillin (100 U/mL), streptomycin (100 μg/mL), and 10% heat-inactivated FBS at 37° C. in a humidified incubator with 5% CO2.
Method: Cells are plated at 4000 cells/well density in 96-wells plate. The next day tested small molecules are added to the cells in the final concentration of 10 μM in the presence of 0.3% DMSO and 10% FBS. After small molecules addition, cells are incubated for 4 days at 37° C. in a humidified incubator with 5% CO2. For IC50 value determination, serial dilutions of compounds were added to cells under the same conditions.
Assay: At the end of the incubation period, cell cultures are fixed with a 50-50 mixture (v/v) acetone-methanol for 10 minutes at −20° C., followed by rehydration in PBS for 10 minutes at room temperature. After rehydration, cells are stained with DAPI (1 μg/ml) in PBS for 10 minutes at room temperature, followed by 3 washes with PBS. After staining, DAPI fluorescence is recorded (358 nm excitation/461 nm emission) with the 96-well plate reader Molecular Devices Spectramax M3; degree of small mole-cule-dependent proliferation inhibition is calculated from raw data assuming No Serum cells value as 100%.

[2] = molecular target: KRas Q61H mutant (Homo sapiens (Human), UniProt P01116, Q61H); test: Ras GTP binding domain inhibition assay; conditions: 20 μM compound
Method: (§2) Buffer-I: • 50 mM Tris, pH 7.5 • 150 mM NaCl (optional) • 1 mM MgCl2 • 1 mM DTT. • KRas G12D mutant protein was expressed as a His-tagged protein. Purified His-KRas G12D protein was diluted in buffer-I to a final concentration of 3-10 μg/ml. • 200 μl of the diluted His-KRas G12D protein was added to a nickel coated 96 well plate and incubated overnight at 4° C. • The next day, wells were washed 3× in 200 μl of Buffer-I. • Then 200 μl of Buffer-I were added to each well in the presence of 1% DMSO. • Tested compounds were added to the protein-coated wells at a concentration of 20 μM, and incubated for 3 hours at room temperature. While performing IC50 measurements a serial dilution of all tested concentrations was prepared.
(§3) Then 22 μl of Cy3-GTP or Cy5-GTP was added to each well. The labeled GTP was incubated for 45 min. at room temperature. • Following GTP incubation, wells were washed 3× in Buffer-I, and 200 μl of Buffer-I were added to each well. • Following washes, the amount of bound labeled-GTP was measured with an Eppendorf AF2200 plate reader.
(§4) By substituting KRas G12D mutant protein with KRas G12C mutant, KRas wild type, KRas Q61H mutant, KRas G12D/Q61H double mutant or KRas G12C/Q61H double mutant under the assay conditions described above, KRas G12C mutant KRas wild type, KRas Q61H mutant, KRas G12D/Q61H double mutant and KRas G12C/Q61H double mutant inhibition, respectively, were each determined.

[3] = molecular target: KRas G12C/Q61H double mutant (Homo sapiens (Human), UniProt P01116, G12C/Q61H); test: Ras GTP binding domain inhibition assay; conditions: 20 μM compound
Method: as §2, §3, §4

[4] = molecular target: KRas wild type (Homo sapiens (Human), UniProt P01116); test: Ras GTP binding domain inhibition assay; conditions: 20 μM compound
Method: as §2, §3, §4

[5] = molecular target: KRas G12C mutant (Homo sapiens (Human), UniProt P01116, G12C); test: Ras GTP binding domain inhibition assay; conditions: 20 μM compound
Method: as §2, §3, §4

[6] = molecular target: KRas G12D mutant protein (Homo sapiens (Human), UniProt P01116, G12D); test: Ras GTP binding domain inhibition assay; conditions: 20 μM compound; read-out: % Inhibition at 20 μM, KRas G12D
Method: The following method was developed as specific assay for KRas G12D mutant protein.
as §2, §3

[7] = test system: MIA-PACA2 pancreatic cancer cell lines; test: Cell proliferation assay (CellTiter 96 AQueous One); type: cell-based; conditions: Homo sapiens, MIA PaCa-2; 30 μM, MIA-PACA2
Method: as §1
Method: Cells are plated at 1000 cells/well density in 96-wells plate, starved ON, and the next day tested small molecules are added to the cells in the final concentration of 30 μM with 0.3% DMSO 3 hours prior to 10% FBS addition. After serum addition cells are incubated for 6 days at 37° C. in a humidified incubator with 5% CO2. For IC50 value determination, serial dilutions of compounds were added to cells under the same conditions.
Assay: At the end of the incubation period, cell cultures are tested using the CellTiter 96® AQueous One Solution Cell Proliferation Assay kit (Promega Corporation, Madison, Wis.) according to the manufacturer specifications. Briefly, assay is performed by adding 20 μl of the CellTiter 96 Aqueous One Solution Reagent directly to culture wells, followed by for 1-4 hours incubation at 37° C. in a humidified incubator with 5% CO2. At the end of incubation time, absorbance at 492 nm is recorded with the 96-well plate reader Eppendorf AF2200, and degree of small molecule-dependent proliferation inhibition is calculated from raw data assuming No Serum cells value as 100%.

[8] = molecular target: KRas G12D/Q61H double mutant (Homo sapiens (Human), UniProt P01116, G12D/Q61H); test: Ras GTP binding domain inhibition assay; conditions: 20 μM compound; read-out: % Inhibition at 20 μM, KRas G12D Q61H
Method: as §2, §3, §4

[9] = test system: MAPK phosphorylation in PANC-1 pancreatic cancer cell line; test: MAPK cell-based phosphorylation assay (cell-direct ELISA, EGF-stimulated); conditions: Homo sapiens, 30 μM
Method: Cell lines: Tumor-derived pancreatic cancer cell lines PANC-1 were purchased from ATCC and were maintained according to ATCC recommendation.
Method: Cells were plated at 7500 cells/well density in 96-wells plate, starved over night, and the small molecules to be tested were added to the cells in the final concentration of 30 μM with 0.3% DMSO for 6 hours incubation at 37° C. For IC50 value determination, serial dilutions of compounds were added to cells under the same conditions. Next, cells were stimulated with 1.5 ng/ml EGF for 15 min. followed by cell fixation with 4% Formaldehyde in PBS at RT for 20 min. Phosphorylation level of MAPK was determined by Cell-direct ELISA.
Cell-direct ELISA: For each well, cells were permeabilized with PBS-Triton 0.1%, quenched with H2O2 0.6% in PBS-Triton 0.1%, and probed with anti-phospho-MAPK antibodies (R&D Systems) followed by HRP-conjugated secondary antibody (Jackson Immunoresearch, West Grove, Pa.). Next, a solution 50 μM of the fluorescent substrate AmpliFlu Red (Sigma) was added and incubated at RT for 20 min. At the end of the incubation time, fluorescence was measured at 595 nm on a microplate reader (AF2200; Eppendorf, Inc., Hamburg, Germany).

Sequence of KRas G12C/Q61H double mutant (P01116-2 other isoform, or with tags, fused parts or gaps G12C/Q61H): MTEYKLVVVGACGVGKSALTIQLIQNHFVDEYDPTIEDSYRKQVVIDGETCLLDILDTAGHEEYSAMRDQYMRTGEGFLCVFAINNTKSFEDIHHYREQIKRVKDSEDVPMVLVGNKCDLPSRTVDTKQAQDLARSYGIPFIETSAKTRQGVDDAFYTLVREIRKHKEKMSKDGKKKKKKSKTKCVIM
Sequence of KRas G12C mutant (P01116-2 other isoform, or with tags, fused parts or gaps G12C): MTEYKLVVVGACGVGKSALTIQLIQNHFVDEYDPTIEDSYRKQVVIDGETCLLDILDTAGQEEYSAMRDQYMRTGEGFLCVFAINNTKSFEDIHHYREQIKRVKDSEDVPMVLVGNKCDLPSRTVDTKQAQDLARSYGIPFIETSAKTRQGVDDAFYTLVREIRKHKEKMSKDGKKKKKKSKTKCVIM
Sequence of KRas wild type (P01116-2 other isoform, or with tags, fused parts or gaps): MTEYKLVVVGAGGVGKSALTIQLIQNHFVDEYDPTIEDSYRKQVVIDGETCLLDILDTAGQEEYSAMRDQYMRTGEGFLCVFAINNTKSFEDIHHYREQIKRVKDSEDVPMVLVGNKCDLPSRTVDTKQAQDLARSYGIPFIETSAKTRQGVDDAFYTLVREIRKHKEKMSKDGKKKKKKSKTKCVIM
Sequence of KRas Q61H mutant (P01116-2 other isoform, or with tags, fused parts or gaps Q61H): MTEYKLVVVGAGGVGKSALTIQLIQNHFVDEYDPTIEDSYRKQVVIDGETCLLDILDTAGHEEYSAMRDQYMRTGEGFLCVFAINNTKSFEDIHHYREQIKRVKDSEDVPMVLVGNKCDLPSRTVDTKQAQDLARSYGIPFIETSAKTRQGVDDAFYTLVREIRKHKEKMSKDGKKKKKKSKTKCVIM
Sequence of KRas G12D/Q61H double mutant (P01116-2 other isoform, or with tags, fused parts or gaps G12D/Q61H): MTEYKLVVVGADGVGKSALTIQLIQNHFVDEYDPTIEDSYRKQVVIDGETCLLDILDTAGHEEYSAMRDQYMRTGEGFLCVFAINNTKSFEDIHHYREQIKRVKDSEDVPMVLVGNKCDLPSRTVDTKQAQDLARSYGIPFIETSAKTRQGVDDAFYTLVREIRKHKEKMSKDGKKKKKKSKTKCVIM
Sequence of KRas G12D mutant protein (P01116-2 other isoform, or with tags, fused parts or gaps G12D): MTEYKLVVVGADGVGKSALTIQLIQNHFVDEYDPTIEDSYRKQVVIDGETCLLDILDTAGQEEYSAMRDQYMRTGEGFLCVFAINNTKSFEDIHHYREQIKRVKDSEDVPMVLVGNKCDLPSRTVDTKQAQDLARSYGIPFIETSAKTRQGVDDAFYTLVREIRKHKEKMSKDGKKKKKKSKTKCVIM

SMILES: SOCCNc1nc(-c2ccccn2)nc2sc(-c3ccccc3)c(-c3ccccn3)c12
inhibition at 10 µM [1]: 76 to 100%

SMILES: COCCNc1nc(-c2nccn2C)nc2sc(-c3ccccc3)c(-c3ccccc3)c12 [drawing 3568]
inhibition at 20 µM [2]: 51 to 75%
inhibition at 20 µM [3]: 51 to 75%
% Inhibition at 20 μM, KRas wild type [4]: A (A = 1-25% inhibition)
% Inhibition at 20 μM, KRas G12C [5]: C (C = 51-75% inhibition)

SMILES: COc1nc(-c2ccccn2)nc2c(-c3cn(C)nc3C(C)C)csc12
inhibition at 10 µM [1]: 76 to 100%

SMILES: O=c1[nH]c(-c2ccccn2)nc2c(C3O[C@H](CO)[C@@H](O)[C@H]3O)csc12 (some centres unmarked)
inhibition at 10 µM [1]: 76 to 100%

inhibition at 20 µM [6]: 25 to 50%
inhibition at 20 µM [4]: 1 to 25%
inhibition at 20 µM [5]: 1 to 25%
SMILES: Cc1ccc(-c2csc3c(O)nc(-c4nccn4C)nc23)c(F)c1

SMILES: COc1ccc(CCNC(=O)c2csc3nc(-c4ccccn4)nc(N4CCSCC4)c23)cn1 [drawing 1763]
inhibition at 30 µM [7]: 51 to 75%

inhibition at 20 µM [6]: 51 to 75%
inhibition at 20 µM [2]: 25 to 50%
inhibition at 20 µM [3]: 1 to 25%
inhibition at 20 µM [4]: 25 to 50%
inhibition at 20 µM [5]: 25 to 50%
inhibition at 20 µM [8]: 25 to 50%
SMILES: Nc1nc(-c2ccccn2)nc2c(C3CC3)csc12

SMILES: COCCOCCN(CCO)C(=O)c1csc2c(O)nc(-c3ccccn3)nc12
inhibition at 30 µM [7]: 1 to 25%

SMILES: O=C(Nc1nnc(-c2ccccc2)[nH]1)c1ncoc1-c1cccs1
inhibition at 30 µM [9]: 25 to 50%

SMILES: COc1nc(-c2ccccn2)nc2c(-c3cccc(O)c3)csc12
inhibition at 10 µM [1]: 76 to 100%

IC50 ([1]; MIA-PACA2 proliferation, same assay as % inhibition (alternate conditions)): 501 to 1000 nM
SMILES: Cn1ccnc1-c1nc(NCCOS)c2c(-c3ccccn3)c(-c3ccccc3)sc2n1
inhibition at 10 µM [1]: 76 to 100%

inhibition at 20 µM [2]: 1 to 25%
inhibition at 20 µM [3]: 1 to 25%
inhibition at 20 µM [8]: 1 to 25%
SMILES: Cc1nc(-c2nccn2C)nc2sc(-c3ccccc3)c(-c3ccccc3)c12

SMILES: O=C(NCCc1cnc(O)nc1)c1csc2nc(-c3ccccn3)nc(N3CCSCC3)c12 [drawing 1764]
inhibition at 30 µM [7]: 1 to 25%

SMILES: Nc1nc(-c2ccccn2)nc2c(C(=O)N3CC4CC3CN4c3ccccc3)csc12 (centres unmarked)
inhibition at 30 µM [7]: 76 to 100%

SMILES: O=C(Nc1nnc(-c2ccccc2)[nH]1)C1CCCC1
inhibition at 30 µM [9]: 1 to 25%

SMILES: COc1cncc(CCNC(=O)c2csc3nc(-c4ccccn4)nc(N4CCOCC4)c23)c1
inhibition at 30 µM [7]: 51 to 75%

Source: patent US11541041B1, “Compounds that interact with the Ras superfamily for the treatment of cancers, inflammatory diseases, Rasopathies, and fibrotic disease” (Shy Therapeutics LLC, priority 2017, dated 2023)
